This is an account of results in patent EP2402020B1, “Pharmaceutical composition comprising extracts of Bupleurum krylovianum for use in the treatment of arthritis and rheumatoid arthritis” (Industrial Technology Research Institute, priority 2010, dated 2012).

≈ marks a conversion by molar mass, not a printed value.

Test [1] concerns TNF-α. The test is described as follows: TNBS enteritis mouse model: TNF-α in colon infusion. It counts as in vivo, BABL/c mice. The note with it: 0.6mg/kg fed + 1.75mg of TNBS into the colon; colon infusion after 48 hours; negative value = enhanced excretion. The source says:
(§1) The BABL/c mice were categorized into 4 groups. Each group had 6 […].

In test [2] the test system is IL-6. Description: TNBS enteritis mouse model: IL-6 in colon infusion. It counts as in vivo, BABL/c mice. The note with it: 0.6mg/kg fed + 1.75mg of TNBS into the colon; colon infusion after 48 hours; negative value = enhanced excretion.
Source text: as §1

Test [3] deals with carrageenan induced hindpaw edema. The test is described as follows: Carrageenan induced hindpaw edema in a rat model (plethysmometer). The format is in vivo, Long-Evan rats. The note with it: 3 mg/kg fed 1 hour before carrageenan (positive control). How it is done: Long-Evan rats were fed with the extract (a) in Example 5 (i) in an amount of 250mg/kg, 500 mg/kg, 1000mg/kg, respectively. The positive control was fed with 3mg/kg of indomethacin (NSAID). The negative control was fed with 10ml/kg of 2% Tween 80 as a carrier After 1 hour, the rats were injected 0.1ml of 1% carrageenan on the left hindpaw. The volume of the rat's left hindpaw was measured by plethysmometer (Stoelting) at the 0, 1.5th, and 3rd hour after injection. The inhibition was calculated by the formula :
Inhibition (%)=(Nt-Nv)/Nv × 100
In the formula, Nt represents the left hindpaw volume of the rat fed with the ethanol extract; Nv represents the left hindpaw of the rat fed with the carrier.
(In general: In the carrageenan paw model, swelling and tenderness develop within hours.)

In test [4] the test system is TNF-α. Description: TNF-α excretion by LPS-stimulated, PMA-activated U937 cells (ELISA). It counts as cell-based, human. The note with it: activated U937, 30 minutes preincubation, LPS stimulation 4 hours, supernatant ELISA. As for the experimental part: The cell line, U937 (human monocyte cell line), was incubated in RPMI medium containing 50 ng/ml PMA (phorbol 12-myristate 13-acetate) (Sigma) and 10% fetal bovine serum (Moor et. al., Roswell Park Memorial Institute) for 24 hours. The cell line was then moved to the RPMI medium without PMA for further 48 hours. The activated U937 was seeded into a 96-well plate in a concentration of 1.6×10^5 cell/well. The wells were added 12.5 µg/ml, 25 µg/ml, 50 µg/ml and 100 µg/ml of kaerophyllin and 1 µg/ml, 3 µg/ml, 10 µg/ml and 30 µg/ml of isokaerphyllin and 10 µl of buffer, respectively. Each well was adjusted to a final volume of 190 µl. The plate was reacted under 37°C for 30 minutes. Each well was added 10 µl of 20 µg/ml LPS to stimulate cells. After 4 hours under 37°C, the plate was centrifuged to collect the supernatants.
The amount of TNF-α in the supernatant was measured by ELISA (R&D System®) based on the control (DMSO). Meanwhile, the cell viability was measured by MTT assay (Sigma).
(In general: ELISA stands for enzyme-linked immunosorbent assay.)

Test [5] relates to IL-6. The test is described as follows: IL-6 excretion by LPS-stimulated, PMA-activated U937 cells (ELISA). It counts as cell-based, human. The note with it: activated U937, 30 minutes preincubation, LPS stimulation 16-18 hours, supernatant ELISA. As for the experimental part:
The cell line, U937, was cultured like Example 13. The activated U937 was /s then seeded in a 96-well plate in a concentration of 1.6×10^5 cell/well. The wells were added 6.3 µg/ml, […], 25 µg/ml and 50 µg/ml of kaerophyllin and 3.8 µg/ml, 7.5 µg/ml, 15 µg/ml and 30 µg/ml of isokaerphyllin and 10 µl of buffer, respectively. Each well was adjusted to a final volume of 190 µl. The plate was put under 37°C for 30 minutes. Each well was added 10µl of 20 µg/ml LPS to stimulate cells. After 16-18 hours under 37°C, the plate was centrifuged to collect the supernatants.
The amount of IL-6 in the supernatant was measured by ELISA (R&D System®) based on the control (DMSO). Meanwhile, the cell viability was measured by MTT assay (Sigma).

As for `C[C@@H]1C[C@H]2[C@@H]3CCC4=CC(=O)C=C[C@]4(C)[C@@]3(F)[C@@H](O)C[C@]2(C)[C@@]1(O)C(=O)CO` [DEX, dexamethasone], the “Inhibition of TNF-α(%)” value in test [1] turned out to be 9%. Besides, in test [2], the “Inhibition of IL-6 (%)” value is -55%.

As for `COc1ccc2c(c1)c(CC(=O)O)c(C)n2C(=O)c1ccc(Cl)cc1` [indomethacin], the “Inhibition at 0 hour (%)” value in test [3] (left hindpaw volume at 0 hour) was 0%. In addition, the “Inhibition at the 1.5th hour (%)” value in test [3] (left hindpaw volume at 1.5th hour) amounted to 21%. For the same compound, in test [3] (left hindpaw volume at 3rd hour), the “Inhibition at the 3rd hour (%)” value came to 52%.

Consider `COc1ccc(/C=C2/C(=O)OC[C@@H]2Cc2ccc3c(c2)OCO3)cc1OC` [kaerophyllin, trans-(3,4-dimethoxybenzylidene)-β-(3,4-methylenedioxylbenzyl)-γ-butyrolactone], for which the IC50 amounted to 44 ± 5 µg/mL (≈ 119 µM) in test [4] (Homo sapiens, U-937, read-out: IC50 value (inhibition of the excretion of TNF-α)) and 13 ± 2 µg/mL (≈ 35.3 µM) in test [5] (Homo sapiens, U-937, read-out: IC50 value (inhibition of the excretion of IL-6)).

In the case of “cis-(3,4-dimethoxybenzylidene)-β-(3,4-methylenedioxylbenzyl)-γ-butyrolactone [isokaerophyllin]”, in test [4], the “IC50 value (inhibition of the excretion of TNF-α)” value was 18 ± 4 µg/mL. In addition, the “IC50 value (inhibition of the excretion of IL-6)” value in test [5] came to 24 ± 6 µg/mL.

The term Inhibition denotes the relative decrease from the control value, in per cent. Read a low Inhibition as a response near the control. The IC50 is the concentration needed to halve the response being measured.
